Measurements: patent US20130184302A1, “METHODS FOR TREATING IRRITABLE BOWEL SYNDROME (IBS) AND INFECTIONS” (priority 2011, published 2013)

What was measured:
subjects with IBS = assay: Sustained response and recurrence of symptoms after Primary Evaluation Period, rolling 4 weeks; assay type: in vivo, human
Description: An evaluation of the enrolled subjects was carried out after the Primary Evaluation Period in the study described in Examples 5-7. […] Subjects with no recurrence are defined as having a stool consistency score of less than 4, abdominal pain reduced by at least 30 percent or both.

[1] = system: patients with non-constipation IBS (non-C IBS); assay: Adverse events and discontinuation, rifaximin 550 mg TID study; assay type: in vivo, human; settings: 550 mg rifaximin TID
subjects with d-IBS [2] = assay: Designed study of 14-day oral rifaximin 550 mg TID in d-IBS (Example 2); assay type: in vivo, human; settings: oral rifaximin 550 mg TID 14 days
Source text: A measure of efficacy is based on subjects' answers to the Weekly Subject Global Assessment (SGA) questions over the 4 week study duration in relation to their IBS symptoms.

[3] = system: patients with non-constipation IBS (non-C IBS); assay: Stool frequency, rifaximin 550 mg TID study; assay type: in vivo, human
[4] = system: C. difficile infection (CDI); assay: CDI trial: number of unformed stools during the treatment period; assay type: in vivo, human
Source text: FIG. 18 sets for the average number of unformed stools per day of the study.

subjects with d-IBS [5] = assay: Adequate relief of IBS symptoms and bloating (weekly yes/no questions), rifaximin BID study in d-IBS; assay type: in vivo, human; settings: aIBS
[6] = system: patients with cirrhosis and overt HE episodes; assay: Rates of commonly-occurring infections and antibiotic use in cirrhotic patients with HE on long-term rifaximin; assay type: in vivo
Source text: Cirrhosis patients can have an increased risk of infections and subsequent hospitalizations, leading to increased mortality. […] A description of the OLM and RCT can be found in WO 2011/005388, “METHODS OF TREATING HEPATIC ENCEPHALOPATHY,” which is incorporated herein by reference in its entirety. In the analysis below, the effect of long term RFX treatment on infection rates and antibiotic use was examined.
Patients with cirrhosis and ≧2 overt HE episodes within 12 months were enrolled in the RCT (RFX=140; placebo [PBO]=159); 170 new patients, in addition to 70 RFX and 82 PBO patients who rolled over from the RCT were enrolled in OLM. The “All RFX group” (n=392) consisted of RFX-treated patients in both studies. Infection rates per person exposure years (PEY) were compared across RCT and All RFX groups, and antibiotic use over time was examined.
In the 6 month RCT, RFX exposure was 50 PEY vs 46 PEY in the PBO group. Long term RFX exposure was for median =427 (2-1427) days, or 510 PEY.

[7] = Rolling 2-5 Weeks, First and Second Studies, Rifaximin (N = 624)
[8] = Rolling 3-6 Weeks, First and Second Studies
[9] = Rolling 4-7 Weeks, First and Second Studies
[10] = Rolling 4-7 Weeks, Rifaximin (N = 624)
[11] = Rolling 5-8 Weeks, First and Second Studies
[12] = Rolling 5-8 Weeks, Rifaximin (N = 624)
[13] = Rolling 6-9 Weeks, First and Second Studies
[14] = Rolling 6-9 Weeks, Rifaximin (N = 624)
[15] = Rolling 7-10 Weeks, First and Second Studies
[16] = Rolling 7-10 Weeks, Rifaximin (N = 624)
[17] = Rolling 8-11 Weeks, First and Second Studies
[18] = Rolling 8-11 Weeks, Rifaximin (N = 624)
[19] = Rolling 9-12 Weeks, First and Second Studies
[20] = Rolling 9-12 Weeks, Rifaximin (N = 624)

CO[C@H]1/C=C/O[C@@]2(C)Oc3c(C)c(O)c4c(O)c(c5c(nc6cc(C)ccn65)c4c3C2=O)NC(=O)/C(C)=C\C=C\[C@H](C)[C@H](O)[C@@H](C)[C@@H](O)[C@@H](C)[C@H](OC(C)=O)[C@@H]1C [Rifaximin, (2S,16Z,18E,20S,21S,22R, 23R,24R,25S,26S,27S,28E)-5,6,21,23,25 Pentahydroxy-27-methoxy-2,4,11,16,20,22,24,26-octamethyl-2,7-(epoxypentadeca-(1,11,13)trienimino) benzofuro (4,5-e) pyrido(1,2,-a) benzimidazole-1,15(2H)-dione,25-acetate]
Abdominal Pain or Stool Consistency: Sustained Durable Response (subjects with IBS; First and Second Studies, Rifaximin (N = 624)): (28.8%)
Abdominal Pain & Stool Consistency: Sustained Durable Response (subjects with IBS; Rifaximin (N = 624)): (33.2%)
Abdominal Pain: Sustained Durable Response (subjects with IBS; Rifaximin (N = 624)): (35.7%)
Stool Consistency: Sustained Durable Response (subjects with IBS; Rifaximin (N = 624)): (68.9%)
Abdominal Pain or Stool Consistency: No Recurrence (subjects with IBS; [7]): (45.8%)
Abdominal Pain or Stool Consistency: Recurrence (subjects with IBS; [7]): (1.9%)
Abdominal Pain or Stool Consistency: No Recurrence (subjects with IBS; [8]): (43.9%)
Abdominal Pain or Stool Consistency: Recurrence (subjects with IBS; [8]): (3.7%)
Abdominal Pain or Stool Consistency: No Recurrence (subjects with IBS; [9]): (40.2%)
Abdominal Pain or Stool Consistency: Recurrence (subjects with IBS; [9]): (2.7%)
Abdominal Pain & Stool Consistency: No Recurrence (subjects with IBS; [10]): (48.2%)
Abdominal Pain & Stool Consistency: Recurrence (subjects with IBS; [10]): (3.7%)
Abdominal Pain: No Recurrence (subjects with IBS; [10]): (51.9%)
Abdominal Pain: Recurrence (subjects with IBS; [10]): (3.8%)
Stool Consistency: No Recurrence (subjects with IBS; [10]): (78.8%)
Stool Consistency: Recurrence (subjects with IBS; [10]): (1.3%)
Abdominal Pain or Stool Consistency: No Recurrence (subjects with IBS; [11]): (37.5%)
Abdominal Pain or Stool Consistency: Recurrence (subjects with IBS; [11]): (2.6%)
Abdominal Pain & Stool Consistency: No Recurrence (subjects with IBS; [12]): (44.6%)
Abdominal Pain & Stool Consistency: Recurrence (subjects with IBS; [12]): (3.2%)
Abdominal Pain: No Recurrence (subjects with IBS; [12]): (48.1%)
Abdominal Pain: Recurrence (subjects with IBS; [12]): (3.0%)
Stool Consistency: No Recurrence (subjects with IBS; [12]): (77.6%)
Stool Consistency: Recurrence (subjects with IBS; [12]): (2.1%)
Abdominal Pain or Stool Consistency: No Recurrence (subjects with IBS; [13]): (34.9%)
Abdominal Pain or Stool Consistency: Recurrence (subjects with IBS; [13]): (1.6%)
Abdominal Pain & Stool Consistency: No Recurrence (subjects with IBS; [14]): (41.3%)
Abdominal Pain & Stool Consistency: Recurrence (subjects with IBS; [14]): (2.2%)
Abdominal Pain: No Recurrence (subjects with IBS; [14]): (45.0%)
Abdominal Pain: Recurrence (subjects with IBS; [14]): (2.4%)
Stool Consistency: No Recurrence (subjects with IBS; [14]): (75.5%)
Stool Consistency: Recurrence (subjects with IBS; [14]): (2.6%)
Abdominal Pain or Stool Consistency: No Recurrence (subjects with IBS; [15]): (33.3%)
Abdominal Pain or Stool Consistency: Recurrence (subjects with IBS; [15]): (1.6%)
Abdominal Pain & Stool Consistency: No Recurrence (subjects with IBS; [16]): (39.1%)
Abdominal Pain & Stool Consistency: Recurrence (subjects with IBS; [16]): (1.8%)
Abdominal Pain: No Recurrence (subjects with IBS; [16]): (42.6%)
Abdominal Pain: Recurrence (subjects with IBS; [16]): (2.4%)
Stool Consistency: No Recurrence (subjects with IBS; [16]): (72.9%)
Stool Consistency: Recurrence (subjects with IBS; [16]): (1.4%)
Abdominal Pain or Stool Consistency: No Recurrence (subjects with IBS; [17]): (31.7%)
Abdominal Pain or Stool Consistency: Recurrence (subjects with IBS; [17]): (1.3%)
Abdominal Pain & Stool Consistency: No Recurrence (subjects with IBS; [18]): (37.3%)
Abdominal Pain & Stool Consistency: Recurrence (subjects with IBS; [18]): (2.2%)
Abdominal Pain: No Recurrence (subjects with IBS; [18]): (40.2%)
Abdominal Pain: Recurrence (subjects with IBS; [18]): (2.2%)
Stool Consistency: No Recurrence (subjects with IBS; [18]): (71.5%)
Stool Consistency: Recurrence (subjects with IBS; [18]): (0.5%)
Abdominal Pain or Stool Consistency: No Recurrence (subjects with IBS; [19]): (30.4%)
Abdominal Pain or Stool Consistency: Recurrence (subjects with IBS; [19]): (1.6%)
Abdominal Pain & Stool Consistency: No Recurrence (subjects with IBS; [20]): (35.1%)
Abdominal Pain & Stool Consistency: Recurrence (subjects with IBS; [20]): (1.9%)
Abdominal Pain: No Recurrence (subjects with IBS; [20]): (38.0%)
Abdominal Pain: Recurrence (subjects with IBS; [20]): (2.2%)
Stool Consistency: No Recurrence (subjects with IBS; [20]): (71.0%)
Stool Consistency: Recurrence (subjects with IBS; [20]): (2.1%)
Subjects with skin or subcutaneous tissue disorders [1]: 1.3%
Answers to weekly SGA question on adequate relief of IBS symptom of bloating (subjects with d-IBS [2]): respond “Yes” more often
Answers to weekly SGA question on adequate relief of IBS symptoms (subjects with d-IBS [2]): respond “Yes” more often
% with decrease in SF (stool frequency) ([3]; Week 1): 14.4%
% with decrease in SF (stool frequency) ([3]; Week 2): 20.6%
% with decrease in SF (stool frequency) ([3]; Week 3): 22.2%
% with decrease in SF (stool frequency) ([3]; Week 4): 21.6%
% with decrease in SF (stool frequency) ([3]; Week 5): 25.7%
% with decrease in SF (stool frequency) ([3]; Week 6): 22.9%
% with decrease in SF (stool frequency) ([3]; Week 7): 23.8%
% with decrease in SF (stool frequency) ([3]; Week 8): 24.4%
% with decrease in SF (stool frequency) ([3]; Week 9): 25.4%
% with decrease in SF (stool frequency) ([3]; Week 10): 26.7%
% with decrease in SF (stool frequency) ([3]; Week 11): 25.4%
% with decrease in SF (stool frequency) ([3]; Week 12): 27.0%
Adjusted mean number of unformed stools-ANOVA: Treatment Difference (95% CI) ([4]; Rifaximin vs Vancomycin, treatment period): 0.46 (−0.08, 1.00)
Overall treatment difference in number of unformed stools-Mixed Model: Treatment Difference (95% CI) ([4]; Rifaximin vs Vancomycin, mixed effects model with treatment, center, study day as fixed effects): 0.32 (−0.08, 0.72)
Adjusted mean number of unformed stools-ANOVA ([4]; during the treatment period, ANOVA model with treatment and center as main effects, Rifaximin N = 117, Vancomycin N = 115): 2.36
Treatment effect, Bloating (subjects with d-IBS [5]): 31.4%*, 31.4%
C. difficile infection, rate ([6]; All RFX Patients (n = 392), PEY = 510): (0.012) number of subjects/PEY
C. difficile infection, rate ([6]; RCT Patients, RFX (n = 140), PEY = 50): (0.040) number of subjects/PEY
Any infection, rate ([6]; human, in vivo): (0.072) number of subjects/PEY
